“And” between values parts separate entries of the source, which are not always exact repeats. Equal values may be shown once.
Settings: Fluid (supercritical or subcritical phases), Impulsive stimulated scattering

N [ammonia]
Settings	speed of sound
297 K, 620000 kPa	2741 m/s
297 K, 700000 kPa	2836 m/s
297 K, 780000 kPa	2942 m/s and 2932 m/s
297 K, 880000 kPa	3023 m/s
297 K, 970000 kPa	3113 m/s
298 K, 370000 kPa	2376 m/s
298 K, 740000 kPa	2903 m/s
474 K, 1430000 kPa	3280 m/s
476 K, 1550000 kPa	3375 m/s
476 K, 2200000 kPa	3788 m/s
477 K, 1090000 kPa	2954 m/s
479 K, 2220000 kPa	3797 m/s
678 K, 2920000 kPa	4000 m/s
678 K, 3080000 kPa	4072 m/s
678 K, 3140000 kPa	4103 m/s
679 K, 1480000 kPa	3084 m/s
679 K, 2440000 kPa	3740 m/s
679 K, 3750000 kPa	4342 m/s
680 K, 1350000 kPa	2982 m/s and 2970 m/s
